Ends that are not written are not given here.
What was measured:
[1] = system: retinoid X receptor (RXR); test: Etoposide-induced apoptosis in HeLa cells transfected with RXR
ERα [2] = biological target: T1, ERα (Homo sapiens, UniProt P03372); test: Etoposide-induced apoptosis in HeLa cells transfected with ERα
T1 sequence (P03372 1-595): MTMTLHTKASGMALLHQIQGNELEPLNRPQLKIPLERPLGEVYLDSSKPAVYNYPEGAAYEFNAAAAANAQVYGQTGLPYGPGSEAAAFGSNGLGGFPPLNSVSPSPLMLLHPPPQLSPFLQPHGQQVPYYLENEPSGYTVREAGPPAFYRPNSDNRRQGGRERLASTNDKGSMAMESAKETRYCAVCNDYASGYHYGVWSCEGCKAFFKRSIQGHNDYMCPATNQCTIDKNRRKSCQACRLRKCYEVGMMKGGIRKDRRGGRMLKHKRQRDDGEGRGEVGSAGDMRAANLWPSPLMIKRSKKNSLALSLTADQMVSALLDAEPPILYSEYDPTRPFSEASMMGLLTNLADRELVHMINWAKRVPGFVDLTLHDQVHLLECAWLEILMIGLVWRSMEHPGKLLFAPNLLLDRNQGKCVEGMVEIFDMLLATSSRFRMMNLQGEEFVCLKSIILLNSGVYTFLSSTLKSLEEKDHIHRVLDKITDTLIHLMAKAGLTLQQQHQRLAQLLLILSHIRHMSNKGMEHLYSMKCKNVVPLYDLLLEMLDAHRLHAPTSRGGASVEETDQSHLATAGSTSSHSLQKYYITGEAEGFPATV

[3] = system: osteocytic cell line MLO-Y4; test: Apoptosis of MLO-Y4 osteocytic cells (trypan blue); type: cell-based; settings: inhibitor 30 min prior to E2 or DHT; etoposide 6 hours
AR = biological target: T2, AR (Homo sapiens, UniProt P10275); test: Etoposide-induced apoptosis in HeLa cells transfected with AR
T2 sequence (P10275 1-920): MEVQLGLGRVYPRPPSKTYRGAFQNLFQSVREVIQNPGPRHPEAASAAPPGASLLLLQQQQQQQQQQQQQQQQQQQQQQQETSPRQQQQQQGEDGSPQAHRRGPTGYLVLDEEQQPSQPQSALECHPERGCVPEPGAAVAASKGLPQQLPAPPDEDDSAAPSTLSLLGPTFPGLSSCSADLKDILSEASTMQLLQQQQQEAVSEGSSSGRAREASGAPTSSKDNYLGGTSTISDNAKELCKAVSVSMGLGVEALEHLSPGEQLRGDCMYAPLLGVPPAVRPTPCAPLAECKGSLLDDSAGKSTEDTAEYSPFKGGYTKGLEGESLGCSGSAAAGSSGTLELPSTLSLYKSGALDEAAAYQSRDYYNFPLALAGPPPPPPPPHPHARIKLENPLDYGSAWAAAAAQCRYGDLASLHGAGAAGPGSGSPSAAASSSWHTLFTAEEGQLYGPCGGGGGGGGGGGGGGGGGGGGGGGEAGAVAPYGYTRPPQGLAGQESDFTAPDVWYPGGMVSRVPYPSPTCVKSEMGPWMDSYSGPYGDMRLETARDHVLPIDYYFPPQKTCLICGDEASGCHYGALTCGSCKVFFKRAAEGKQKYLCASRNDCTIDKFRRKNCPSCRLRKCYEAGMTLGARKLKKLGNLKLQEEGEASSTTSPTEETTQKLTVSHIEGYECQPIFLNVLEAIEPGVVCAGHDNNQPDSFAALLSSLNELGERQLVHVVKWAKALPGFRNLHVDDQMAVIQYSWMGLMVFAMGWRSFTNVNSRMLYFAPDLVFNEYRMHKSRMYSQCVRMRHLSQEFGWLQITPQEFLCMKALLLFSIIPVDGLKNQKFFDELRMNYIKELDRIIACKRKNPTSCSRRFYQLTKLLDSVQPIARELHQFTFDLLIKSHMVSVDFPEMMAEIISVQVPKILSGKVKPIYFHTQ

ERK1/2 = test: ERK phosphorylation in MLO-Y4 cells (Western blot); type: cell-based; settings: inhibitor 25 min, then 5 min E2 or DHT
Method: Western blot analysis. The phosphorylation status of ERK1/2 was analyzed by immunoblotting using a mouse monoclonal antibody recognizing tyrosine phosphorylated ERK1/2, or a rabbit polyclonal antibody recognizing total ERK1/2, followed by incubation with either an anti-mouse or an anti-rabbit antibody conjugated with horseradish peroxidase (Santa Cruz Biotechnology).

E domain of the ER = test: Etoposide-induced apoptosis in HeLa cells transfected with the E domain of ERα; type: cell-based, human
Method: (§1) DNA constructs. […] Bio. […] The sequence for peptide αII is […] (SEQ ID NO.: 1). […] (SEQ ID NO.: 3). The sequence for GRIP is […] […] […] (SEQ ID NO.: 4). […] The forward primer contained the restriction site for SalI and the ERα Kozak sequence and the reverse primer contained the BamH1 restriction site. Amplified PCR products were subcloned into the SalI/BamH1 restriction site of pCMV.
(§2) Transient transfections. HeLa cells were plated at 5×10^4/cm^2 and after 16-24 hours were transfected with a total amount of 3 μg of DNA using Lipofectamine (Life Technologies Inc). Following a 4-6 hours of incubation, the transfection mix was replaced with fresh medium containing 10% charcoal-stripped serum and treatments were initiated.

[4] = system: calvaria-derived murine osteoblastic cells; test: Apoptosis of calvaria-derived osteoblastic cells (trypan blue); settings: etoposide-induced apoptosis
ERα [5] = biological target: T1, ERα; test: C3-luc transcription in HeLa cells transfected with ERα; type: cell-based; parameters: expression vectors encoding the full length ERα or its E domain; expressed in transfected cells; host or cells: HeLa; settings: HeLa with C3-luc and ERα
Method: A. For C3-mediated transcription, HeLa cells were transfected with C3-luc and ERα, and were treated with the indicated concentrations of an estren or a pyrazole. Bars represent the mean±SD of the relative luciferase units (RLU) normalized for β-galactosidase activity. p<0.05 versus cells transfected with empty vector (ev), by ANOVA. The anti-apoptotic activity of the estren and the pyrazole was evaluated in calvaria-derived osteoblasts as described in FIG. 1B. * p<0.05 versus cells not treated with etoposide by ANOVA. B. MLO-Y4 cells were incubated for 5, min with the indicated concentrations of the different ligands and ERK phosphorylation was assessed as in FIG. 4A.
DNA constructs. Reporter plasmids carrying the 2.25 Kb of the human IL-6 promoter, 3 copies of the vitellogenin ERE sequences, or the complement 3 promoter driving the firefly luciferase gene (IL-6-luc, ERE-luc, and C3-luc, respectively) were used to assay transcriptional effects of the steroids. The expression plasmids of ER peptide antagonists carrying either αII, or two copies of 293 (2x293) , or two copies of F6 (2xF6) or GRIP fused to the GAL4 DNA binding domain driven by the SV40 promoter have been described previously (Norris, J. D. et al. (1999) Science 285, 744-746). The sequences of the peptides are disclosed in Chang et al. (1999) Mol. Cell. Bio. 19:8226-8239 which is incorporated herein in its entirety. […]

ERα [6] = biological target: T1, ERα; test: IL-6-luc transcription in HeLa cells transfected with ERα; type: cell-based; parameters: expression vectors encoding the full length ERα or its E domain; expressed in transfected cells; host or cells: HeLa; settings: ERα carrying HeLa cells, 10^−8 M E2
Text: (§3) A. HeLa cells were transiently transfected with the ERα expression vector alone or together with a vector carrying a fusion of the α-II peptide with the GAL4 DNA binding domain driven by the SV40 promoter. In addition, cells were transfected with ERE-luc or IL-6-luc for the transcription studies; or with EGFP-nuc for the apoptosis experiments. […] B. HeLa cells were transfected with ERα or ERβ alone or together with expression vectors carrying 2X293 or 2XF6 peptides. […] C. HeLa cells were transfected with a vector carrying the GRIP peptide alone or together with ERα.
as §1, §2

ERβ [7] = biological target: T3, ERβ (Homo sapiens, UniProt Q92731); test: IL-6-luc transcription in HeLa cells transfected with ERβ; type: cell-based; parameters: expressed in transfected cells; host or cells: HeLa; settings: ERβ carrying HeLa cells, 10^−8 M E2
Text: as §3, §1, §2

ERβ [8] = biological target: T3, ERβ; test: ERE-luc transcription in HeLa cells transfected with ERβ; type: cell-based; parameters: expressed in transfected cells; host or cells: HeLa; settings: ERβ carrying HeLa cells, 10^−8 M E2
Text: as §3, §1, §2

ERβ [9] = biological target: T3, ERβ; test: Etoposide-induced apoptosis in HeLa cells transfected with ERβ; settings: peptide co-transfected, 10^−8 M E2
ERα [10] = biological target: T1, ERα; test: ERE-luc transcription in HeLa cells transfected with ERα; type: cell-based; parameters: expression vectors encoding the full length ERα or its E domain; expressed in transfected cells; host or cells: HeLa; settings: ERα carrying HeLa cells, 10^−8 M E2
Text: as §3, §1, §2

T3 sequence (Q92731 whole entry, species assumed): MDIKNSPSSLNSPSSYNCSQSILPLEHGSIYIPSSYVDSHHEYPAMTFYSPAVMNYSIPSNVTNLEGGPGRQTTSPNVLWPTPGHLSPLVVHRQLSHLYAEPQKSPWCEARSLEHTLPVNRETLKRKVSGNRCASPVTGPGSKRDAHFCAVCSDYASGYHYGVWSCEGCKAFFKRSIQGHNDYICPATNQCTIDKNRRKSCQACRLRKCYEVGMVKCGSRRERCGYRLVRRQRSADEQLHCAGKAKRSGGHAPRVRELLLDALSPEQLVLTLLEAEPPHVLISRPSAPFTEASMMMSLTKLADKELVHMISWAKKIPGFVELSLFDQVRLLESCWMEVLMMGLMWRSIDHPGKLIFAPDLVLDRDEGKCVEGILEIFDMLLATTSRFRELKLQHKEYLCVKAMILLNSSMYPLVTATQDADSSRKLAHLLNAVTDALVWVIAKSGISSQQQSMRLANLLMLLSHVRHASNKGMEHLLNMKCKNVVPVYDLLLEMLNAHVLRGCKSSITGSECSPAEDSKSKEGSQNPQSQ

C=C1/C(=C\C=C2/CCC[C@]3(C)[C@@H]([C@H](C)CCCC(C)(C)O)CC[C@@H]23)C[C@@H](O)C[C@@H]1O [1,25(OH)2D3, 1,25-dihydroxy-Vitamin D3]
prevention of etoposide-induced apoptosis [1]: prevented apoptosis

COc1cccc(-c2cc(=O)c3ccccc3o2)c1N [PD98059]
effect of antagonist/inhibitor on the anti-apoptotic effect of E2 or DHT (ERα [2]; HeLa transfected with ERα): abrogated | effect of inhibitor on the anti-apoptotic effect of E2 and DHT [3]: completely abrogated | effect of antagonist/inhibitor on the anti-apoptotic effect of E2 or DHT (AR): abrogated | effect of inhibitor on induction of ERK phosphorylation by E2 or DHT (ERK1/2): blocked | effect of inhibitor on anti-apoptotic activity, compared with full length ERα (E domain of the ER): exactly the same effects

c1cn[nH]c1 [pyrazole]
anti-apoptotic efficacy on primary calvaria cells [4]: minimal anti-apoptotic efficacy | transcriptional activity on the C3 gene (C3-luc) (ERα [5]): potent transcriptional activity

F6: peptide GHEPLTLLERLLMDDKQAV (SEQ ID NO.: 3) interacting with both ERα and ERβ; two copies expressed as GAL4 fusion (also: two copies fused to GAL4 DNA binding domain)
effect of peptide on E2-induced decrease in IL-6-Luc transcription (ERα [6]): blocked | effect of peptide on E2 effect on IL-6-Luc transcription (ERβ [7]): blocked | effect of peptide on the anti-apoptotic activity of ERα (E2) (ERα [2]; peptide co-transfected, 10^−8 M E2): blocked | effect of peptide on E2-induced ERE-Luc transcription (ERβ [8]): blocked | effect of peptide on the anti-apoptotic activity of ERβ (E2) (ERβ [9]): blocked | effect of peptide on E2-induced ERE-Luc transcription (ERα [10]): blocked

estren
anti-apoptotic efficacy on primary calvaria cells [4]: potent anti-apoptotic efficacy | transcriptional activity on the C3 gene (C3-luc) (ERα [5]): no transcriptional activity

Reference: US20020137209A1, “Methods of dissociating nongenotropic from genotropic activity of steroid receptors” (priority 2000, published 2002)
